By IC50 is commonly meant the concentration that inhibits the measured activity by half. Higher therefore signals weaker potency.

For one compound, IC50 results are on record in BindingDB's records for doi:10.1016/0960-894X(94)85036-4 (1994).

The assay deals with Type-1 angiotensin II receptor (Rattus norvegicus). Briefly: […] inhibitory concentration against Angiotensin II receptor, type 1 of rat adrenal membrane.

The compound `CCCCOC(=O)NS(=O)(=O)c1ccccc1-c1ccc(Cn2c(CCCC)nc3ccc(NC(=O)N(C)C(C)C)cc3c2=O)cc1` [2-Butyl-3-(2'-(butyloxycarbonylaminosulphonyl)-biphenyl-4-ylmethyl)-6-(N-isopropyl-N-methyl-aminocarbonylamino)-3H-quinazolin-4-one] gave an IC50 of 4 nM.
